This passage reports IC50 results from EP1377579B1 (Aventis Pharmaceuticals Inc., priority 2000, dated 2002).

pIC50: −log10 of the molar value. Counter-ions that a name gives are not always drawn.

One test concerns the target cdk4/cyclin D1 (Homo sapiens, UniProt P11802). The experiment in a line: Cyclin-dependent kinase assay, cdk4/cyclin D1. The test is classed as biochemical. The following applies: cyclin D1/cdk4; GST-pRb substrate, 10 µM ATP.
A further test concerns MDA-MB-435. Kind of test: In vitro proliferation assay (MTT), MDA-MB-435. The test is classed as cell-based, human. The following applies: Homo sapiens, MDA-MB-435, MTT assay; value (SD, n) where given; read-out: MB-435 Breast (IC50 µM). In a few lines: (§1)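 A570 readout of DMSO-solubilized MTT formazan after 3-day compound exposure; IC50 from raw data. Cells plated 1000–2500/well and recovered overnight before dosing.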

The next test concerns NCI-H460. The experiment in a line: In vitro proliferation assay (MTT), NCI-H460. The test is classed as cell-based. The note with it: Homo sapiens, NCI-H460; MTT assay; value (SD, n) where given; read-out: H-460 Lung (IC50 µM). Put shortly: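 A570 of DMSO-solubilized formazan was the read-out. Seeding: 1000–2500 cells/well, overnight recovery. Compound exposure: 3 days. MTT incubation: 2–4 hr, 37 C. IC50 calculated from raw absorbance.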

For another test, the system named is HL-60. Kind of test: In vitro proliferation assay (MTT), HL-60. The test is classed as cell-based. The note with it: Homo sapiens, HL-60; MTT assay; value (SD, n) where given; read-out: HL-60 Leuk. (IC50 µM). As to the method:
(§2) The proliferation of tumor cells can be measured using a tetrazolium salt-based assay known as the MTT (3-[4,5-Dimethylthiazol-2-yl]-2,5-diphenyltetrazolium bromide) assay. The proliferation test is performed essentially as described by Carmichael et al., Cancer Res. 47: 936-942, 1987. For the assay, the cell lines are plated onto 96 well plates at 1000 to 2500 cells/well (depending on the properties of the individual cell lines), left to attach and recover overnight. […] After 3 days, the cells are incubated with MTT dye (3-[4,5-Dimethylthiazol-2-yl]-2,5-diphenyltetrazolium bromide, Sigma # M5655, 10 mg/ml in Hank's Buffered Saline) to estimate the amount of live cells remaining vs. concentration for the test compounds. Specifically, MTT solution is added to a final concentration of […] and the plates incubated at 37 C for 2 to 4 hr. The MTT and culture medium is then removed from the cultures and 200 µl of DMSO is added to solubilize the dye from the cell layer. The absorbance at 570 nm is determined for each culture using a Spectramax plate reader (Molecular Devices).
(§3) IC50s were determined from the raw data from either the MTT or SRB assays.
(§4) All of the cell lines were obtained from American Type Tissue Collection, with the ATCC accession number in parentheticals. MCF-7 and MDA-MB-231 cells were grown in improved minimum essential medium (Biofluids) without phenol red, supplemented with 5 % fetal bovine serum, 0.01 mg/ml gentamicin and 3 mM L-glutamine. All of the other cell lines were grown in RPMI 1640 medium (Life Technologies) supplemented with 5 % fetal bovine serum, 0.01 mg/ml gentamicin and 3 mM L-glutamine TABLE 3
For orientation: Tetrazolium assays rely on reduction of a dye to a coloured formazan, in cell work by metabolically active cells.

In a further test the test system is Jurkat. The experiment in a line: In vitro proliferation assay (MTT), Jurkat. The test is classed as cell-based. The note with it: Homo sapiens, MTT assay, value (SD, n) where given, read-out: Jurkat Leuk. (IC50 µM). The procedure: as §2, §3, §4
For another test, the system named is PC-3. Kind of test: In vitro proliferation assay (MTT), PC-3. The class given is cell-based, human. The note with it: Homo sapiens, PC-3, MTT assay; value (SD, n) where given; read-out: PC-3 Prostate (IC50 µM). In a few lines:
as §1

The test system of another test is Colo-205. The experiment in a line: In vitro proliferation assay (MTT), Colo-205. The test is classed as cell-based. The note with it: Homo sapiens, COLO 205; MTT assay; value (SD, n) where given; read-out: Colo-205 Colon (IC50 µM). In a few lines:
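After 3 days of compound exposure, MTT was added to Colo-205 cultures for 2–4 h at 37 °C. Formazan was dissolved in DMSO and absorbance read at 570 nm. Cells had been plated at 1000–2500/well and left to recover overnight; IC50 values came from the raw readings.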

For another test, the target named is cdk1/cyclin B (Homo sapiens, UniProt P06493). The experiment in a line: Cyclin-dependent kinase assay, cdk1/cyclin B. The following applies: CDK1 IC50, nM, Histone H1, 10 µM ATP.
A further test deals with cdk2/cyclin E (Homo sapiens, UniProt P24941). The experiment in a line: Cyclin-dependent kinase assay, cdk2/cyclin E. The following applies: CDK2 IC50, nM, GST-pRb substrate, 10 µM ATP.

Sequence of cdk4/cyclin D1 (P11802 whole entry): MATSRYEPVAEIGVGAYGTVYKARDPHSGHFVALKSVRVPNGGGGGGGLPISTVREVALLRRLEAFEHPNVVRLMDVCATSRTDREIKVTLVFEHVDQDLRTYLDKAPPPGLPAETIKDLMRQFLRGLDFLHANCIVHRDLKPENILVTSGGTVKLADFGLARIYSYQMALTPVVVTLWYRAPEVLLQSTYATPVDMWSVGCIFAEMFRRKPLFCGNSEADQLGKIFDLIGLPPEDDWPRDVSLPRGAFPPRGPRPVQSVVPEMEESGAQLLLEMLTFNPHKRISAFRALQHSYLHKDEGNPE
Sequence of cdk4/cyclin D1 (P24385 whole entry partner): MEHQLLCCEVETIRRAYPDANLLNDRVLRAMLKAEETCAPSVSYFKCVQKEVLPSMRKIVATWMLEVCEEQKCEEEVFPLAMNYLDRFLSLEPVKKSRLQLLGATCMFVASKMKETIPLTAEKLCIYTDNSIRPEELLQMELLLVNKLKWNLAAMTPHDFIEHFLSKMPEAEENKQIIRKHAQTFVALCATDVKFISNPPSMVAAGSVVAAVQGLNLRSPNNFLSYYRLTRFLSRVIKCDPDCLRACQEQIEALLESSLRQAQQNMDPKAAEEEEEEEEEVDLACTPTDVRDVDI
Sequence of cdk1/cyclin B (P06493 whole entry): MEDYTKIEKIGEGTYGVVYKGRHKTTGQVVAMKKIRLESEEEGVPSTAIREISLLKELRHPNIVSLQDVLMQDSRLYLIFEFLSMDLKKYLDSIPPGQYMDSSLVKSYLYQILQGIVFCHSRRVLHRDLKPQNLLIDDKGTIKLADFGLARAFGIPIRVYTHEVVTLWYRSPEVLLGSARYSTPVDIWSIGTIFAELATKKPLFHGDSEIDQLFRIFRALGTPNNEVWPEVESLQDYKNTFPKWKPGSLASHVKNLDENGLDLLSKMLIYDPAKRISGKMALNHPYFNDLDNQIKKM
Sequence of cdk1/cyclin B (P14635 whole entry partner): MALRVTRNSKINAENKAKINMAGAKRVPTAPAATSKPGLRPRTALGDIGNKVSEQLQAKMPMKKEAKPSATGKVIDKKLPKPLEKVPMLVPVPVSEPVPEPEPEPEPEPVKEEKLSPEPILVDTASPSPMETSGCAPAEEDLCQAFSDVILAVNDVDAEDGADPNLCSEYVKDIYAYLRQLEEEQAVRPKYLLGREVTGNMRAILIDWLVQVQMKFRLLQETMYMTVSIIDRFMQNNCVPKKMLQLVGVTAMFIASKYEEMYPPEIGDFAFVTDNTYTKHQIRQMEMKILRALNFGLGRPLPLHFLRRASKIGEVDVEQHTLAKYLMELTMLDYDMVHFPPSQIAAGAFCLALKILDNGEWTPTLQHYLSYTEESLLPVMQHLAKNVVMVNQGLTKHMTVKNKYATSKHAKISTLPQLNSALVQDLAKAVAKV
Protocol for cdk1/cyclin B: The IC50 values for cdk1/cyclin B, cdk2/cyclin E, and cdk4/cyclin D1 inhibition are determined using the following methods: • The cdk1 sequence (accession number Y00272) is amplified by PCR and cloned into the BamHI and SalI sites of pFASTBAC1 (Life Technologies).
The cyclin B1 sequence (accession number M25753) is amplified by PCR and cloned into the BamHI and SalI sites of pFASTBAC1 (Life Technologies).
The insect cell (Sf9) expression is optimized for each of the CDK/cyclin pairs according to the manufacturer's protocols (Life Technologies). For cdk4-HA/cyclin D1-His6 an infection of 0.1 multiplicity of infection (MOI) for 48 hours gives the best expression levels of the complex as well as activity.
The viruses are added to the cells and the culture is incubated at 27°C for the desired time. The cells are harvested by centrifugation at 3000 rpm for 10 minutes. The cells are snap frozen on dry ice and stored at - 80°C.
Cell extracts are made following a standard procedure. The cell pellet is resuspended in lysis buffer (50 mM HEPES, pH 8.0, 10 mM MgCl2, 1 mM DTT, 2.5 mM EGTA, 1 mM EDTA, 10 mM β-glycerophosphate, 1 mM sodium vanadate, 1 mM sodium fluoride, 1 x Protease inhibitor cocktail). The cells are lysed using the microfluidizer (Microfluidics) for 20 minutes. Cell debris is removed by centrifugation at 100,000 x g. The cell extracts are aliquoted in 1 ml aliquots, frozen on dry ice, and stored at -80°C.
The kinase reactions are performed following a standard procedure. The enzyme and inhibitor are diluted in kinase buffer (50 mM HEPES, pH 8.0, 10 mM MgCl2, 2.5 mM EGTA, 10 mM β-glycerophosphate, 1 mM sodium vanadate, 1 mM sodium fluoride, and 1 mM DTT) and pre-incubated for 30 minutes. […] The cdk1 enzyme activity is assayed using Histone H1 (Sigma) in the presence of 10 µM ATP for 30 min at room temperature. The reactions are terminated by the addition of 50 µL of 10 mM cold ATP to stop the reactions. The reactions are transferred to a pre-soaked 96-well multi-screen plate containing 30 µL of 100% TCA per well. After incubation for one hour at room temperature, the plates are washed twice with 200 µl of 20% TCA, followed by 200 µl of 10% TCA and finally with 200 µl of 5% TCA. After drying the plates at room temperature, the filter plates are placed in adapter plates (Packard) and 40 µl of Microscint-O® (Packard) is added to each well. Top Seal A film is used to cover the plates before counting in a Top Count Scintillation Counter.
The % remained activity of the indicated Cdk/cyclin kinase complex in the presence of inhibitor is calculated by the ratio of cpm in the presence of inhibitor to cpm in the absence of inhibitor (%Activity = vi/vo x 100%).

Regarding `N[C@H]1CC[C@H](Nc2nc(NC3CCN(S(=O)(=O)c4ccc(C(F)(F)F)cc4[N+](=O)[O-])CC3)c3ncn(C4CCCC4)c3n2)CC1` [compound 132, trans-N^2-(4-Amino-cyclohexyl)-9-cyclopentyl-N^6-[1-(2-nitro-4-trifluoromethyl-benzenesulfonyl)-piperidin-4-yl]-9H-purine-2,6-diamine dihydrochloride], the pIC50 at cdk4/cyclin D1 is 6.23. The concentration for half-maximal inhibition (IC50) in the test on MDA-MB-435 is 0.21 µM; in the test with NCI-H460, 0.12 µM; with HL-60, less than 0.02 µM; with Jurkat, 0.21 µM; with PC-3, 0.15 µM; in the test with Colo-205 it was 0.04 µM. The IC50 on cdk1/cyclin B stood at 74 nM; against cdk2/cyclin E, 35 nM.
For the molecule `N[C@H]1CC[C@H](Nc2nc(NC3CCN(S(=O)(=O)c4cccc5cccnc45)CC3)c3ncn(C4CCCC4)c3n2)CC1` [compound 144, trans-N^2-(4-Amino-cyclohexyl)-9-cyclopentyl-N^6-[1-(quinoline-8-sulfonyl)-piperidin-4-yl]-9H-purine-2,6-diamine dihydrochloride], on cdk4/cyclin D1, the pIC50 was 7.12. The IC50 came out at 0.16 µM in the test with MDA-MB-435; 0.33 µM in the test with NCI-H460; 0.12 µM in the test with HL-60; 0.25 µM with Jurkat; 0.18 µM with PC-3; 0.05 µM in the test with Colo-205. The IC50 against cdk1/cyclin B and against cdk2/cyclin E was 2 nM each time.
Regarding `N[C@H]1CC[C@H](Nc2nc(NC3CCN(C(=O)Nc4ccccc4)CC3)c3ncn(C4CCCC4)c3n2)CC1` [compound 146, trans-4-[2-(4-Amino-cyclohexylamino)-9-cyclopentyl-9H-purin-6-ylamino]-piperidine-1-carboxylic acid phenylamide dihydrochloride], on cdk4/cyclin D1, the pIC50 is 6.70. For the same molecule, the concentration for half-maximal inhibition (IC50) is 0.35 µM with MDA-MB-435; 0.42 µM in the test on NCI-H460; 0.04 µM in the test with HL-60; 0.32 µM in the test with Jurkat; 0.34 µM in the test on PC-3; less than 0.02 µM with Colo-205. For the same molecule, the values for the IC50 against cdk1/cyclin B and against cdk2/cyclin E were 18 nM and 42 nM, respectively.
Take `N[C@H]1CC[C@H](Nc2nc(NC3CCN(C(=O)Nc4ccc(F)cc4)CC3)c3ncn(C4CCCC4)c3n2)CC1` [compound 147, trans-4-[2-(4-Amino-cyclohexylamino)-9-cyclopentyl-9H-purin-6-ylamino]-piperidine-1-carboxylic acid (4-fluoro-phenyl)-amide dihydrochloride]: the pIC50 against cdk4/cyclin D1 is 6.59. For the same molecule, the IC50 is 0.33 µM in the test on MDA-MB-435; 0.56 µM in the test on NCI-H460; 0.03 µM in the test with HL-60; 0.51 µM in the test on Jurkat; 0.36 µM with PC-3; less than 0.02 µM in the test with Colo-205. Moreover, the IC50 against cdk1/cyclin B worked out at 38 nM; against cdk2/cyclin E it was 46 nM.
As for `N[C@H]1CC[C@H](Nc2nc(NC3CCN(C(=O)Nc4ccc(Cl)cc4)CC3)c3ncn(C4CCCC4)c3n2)CC1` [compound 150, trans-4-[2-(4-Amino-cyclohexylamino)-9-cyclopentyl-9H-purin-6-ylamino]-piperidine-1-carboxylic acid (4-chloro-phenyl)-amide dihydrochloride], at cdk4/cyclin D1, the pIC50 was 7.04. Also, the IC50 is 0.2 µM with MDA-MB-435; 0.19 µM in the test with NCI-H460; less than 0.02 µM in the test on HL-60; 0.24 µM in the test on Jurkat; 0.25 µM in the test with PC-3; 0.02 µM in the test on Colo-205. Further, the figures for the IC50 against cdk1/cyclin B and against cdk2/cyclin E were 26 nM and 55 nM, respectively.
As for `N[C@H]1CC[C@H](Nc2nc(NC3CCN(C(=O)Nc4cccc(C(F)(F)F)c4)CC3)c3ncn(C4CCCC4)c3n2)CC1` [compound 159, trans-4-[2-(4-Amino-cyclohexylamino)-9-cyclopentyl-9H-purin-6-ylamino]-piperidine-1-carboxylic acid (3-trifluoromethyl-phenyl)-amide dihydrochloride], on cdk4/cyclin D1, the pIC50 was 6.15. For the same molecule, the IC50 was 0.2 µM in the test on MDA-MB-435; 0.4 µM in the test with NCI-H460; 0.07 µM in the test with HL-60; 0.41 µM in the test with Jurkat; 0.33 µM with PC-3; 0.02 µM in the test on Colo-205. Besides, the IC50 is 4 nM against cdk1/cyclin B and 16 nM against cdk2/cyclin E.
Take `N[C@H]1CC[C@H](Nc2nc(NC3CCN(C(=O)Nc4ccc(Br)cc4)CC3)c3ncn(C4CCCC4)c3n2)CC1` [compound 162, trans-4-[2-(4-Amino-cyclohexylamino)-9-cyclopentyl-9H-purin-6-ylamino]-piperidine-1-carboxylic acid (4-bromo-phenyl)-amide dihydrochloride]: at cdk4/cyclin D1, the pIC50 was 6.22. The IC50 with MDA-MB-435 was 0.14 µM; with NCI-H460, 0.18 µM; with HL-60 it was less than 0.02 µM; in the test on Jurkat, 0.19 µM; with PC-3, 0.12 µM; with Colo-205, 0.04 µM. Besides, the IC50 on cdk1/cyclin B amounted to 15 nM; at cdk2/cyclin E, 72 nM.
In turn, `COc1ccccc1NC(=O)N1CCC(Nc2nc(N[C@H]3CC[C@H](N)CC3)nc3c2ncn3C2CCCC2)CC1` [compound 163, trans-4-[2-(4-Amino-cyclohexylamino)-9-cyclopentyl-9H-purin-6-ylamino]-piperidine-1-carboxylic acid (2-methoxy-phenyl)-amide dihydrochloride] gave a pIC50 on cdk4/cyclin D1 of 6.07. Further, the IC50 in the test with MDA-MB-435 is 0.17 µM; in the test on NCI-H460, 0.21 µM; in the test with HL-60, 0.05 µM; in the test with Jurkat it was 0.28 µM; in the test with PC-3, 0.21 µM; in the test on Colo-205 it was 0.19 µM. In addition, the results for the IC50 against cdk1/cyclin B and on cdk2/cyclin E were 37 nM and 57 nM, respectively.
With `N[C@H]1CC[C@H](Nc2nc(NC3CCN(C(=O)Nc4cccc(Cl)c4)CC3)c3ncn(C4CCCC4)c3n2)CC1` [compound 165, trans-4-[2-(4-Amino-cyclohexylamino)-9-cyclopentyl-9H-purin-6-ylamino]-piperidine-1-carboxylic acid (3-chloro-phenyl)-amide dihydrochloride], the pIC50 against cdk4/cyclin D1 is 6.15. Moreover, the IC50 in the test on MDA-MB-435 is 0.08 µM; with NCI-H460, 0.2 µM; with HL-60 it was less than 0.02 µM; in the test on Jurkat it was 0.22 µM; in the test with PC-3, 0.13 µM; in the test on Colo-205, 0.02 µM. Further, the IC50 at cdk1/cyclin B stood at 11 nM; against cdk2/cyclin E, 21 nM.
`N[C@H]1CC[C@H](Nc2nc(NC3CCN(C(=O)Nc4ccccc4Cl)CC3)c3ncn(C4CCCC4)c3n2)CC1` [compound 169, trans-4-[2-(4-Amino-cyclohexylamino)-9-cyclopentyl-9H-purin-6-ylamino]-piperidine-1-carboxylic acid (2-chloro-phenyl)-amide dihydrochloride]: the pIC50 against cdk4/cyclin D1 is 6.89. Besides, the IC50 in the test with MDA-MB-435 is 0.11 µM; with NCI-H460, 0.15 µM; with HL-60, 0.04 µM; in the test on Jurkat, 0.21 µM; with PC-3 it was 0.15 µM; in the test with Colo-205, 0.09 µM. The concentration for half-maximal inhibition (IC50) at cdk1/cyclin B worked out at 28 nM; at cdk2/cyclin E, 45 nM.

In general, pIC50 refers to −log10 of the IC50, conventionally taken in molar units. In general, IC50 refers to the point on the concentration scale where inhibition reaches its midpoint.
